Columns and labels:
LO2 cells = assay: MTT assay, toxic effect on normal liver cells LO2; assay type: cell-based; conditions: in vitro
Experimental: As shown in Figure 1 and Table 1, compounds 1–16 were evaluated for their inhibitory effects on the proliferation of HepG2 and LO2 cells by MTT assay. […] It provided the experimental basis for the subsequent synthesis of attenuating and improving urushiol derivatives.
(§1) Detection of cell proliferation by MTT
(§2) MTT assay was used to determine the inhibitory effect of the sample on the proliferation of HepG2 cells. The tumor cells of logarithmic growth stage were inoculated with 3.5 * 103 / well in 96 well culture plate. 0.2 ml/pore system was cultured for 72 h with different concentrations of samples. Then 20μL(final concentration 0.5 mg / mL) of MTT were added to each pore for 4 h. The supernatant was carefully adsorbed, DMSO 0.15 mL was added to each pore, and oscillatory mixing was carried out. The absorbance (A) value at 490 nm wavelength was measured by enzyme labeling instrument. The inhibition rate of cell proliferation was calculated as follows: [(A value of negative control group-A value of blank group)-(A value of experimental group A value of blank group)] / (negative pair group A-A value of blank group) × 100.Statistical method. The statistical analysis was carried out by SPSS 17.0 statistical software. The measured data were described by x ±s, and the mean of the two samples was compared with t test (P < 0. 05).
(§3) Materials and methods: Main reagents and instruments […]
Full-range rainbow […]
The HepG2 cells were cultured in a saturated humidity incubator with 90% […]
Jiangsu Kaiji Biotechnology Co., Ltd. Main reagents and consumables Cell culture bottle […]
Cell proliferation measured by MTT
1) the cells were digested and counted, the cell suspension was prepared by 3 x 10^4 /ml, and 100 micron L cell suspension was added to each hole in the 96 hole cell culture plate.
2) 96 hole cell culture plate was placed in 37, 5%, CO2 culture box for 24 hours.
3) use the medium to dilute the drug to the desired working fluid concentration, add 100 micron l per hole to the corresponding drug medium, and establish a negative control group and a positive control group (paclitaxel, 20ug/ml).
4) 96 hole cell culture plate was placed at 37 ℃ and 5% CO2 incubator for 72 hours.
5) 96 hole board for MTT staining, lambda =490nm, OD value determination; a. 20 μL MTT (5mg/ml) per hole was added to the culture box for 4 hours. b. discarding the supernatant, adding 150 μL DMSO for each hole, and gently mixing the […]
c. lambda =490nm, ELISA od readout per hole, the inhibition rate was calculated.
6) calculate the inhibition rate of each group.The inhibition rate (%) = (negative control group OD value of experimental group / OD) negative control group OD x 100% […]
7 check the machine and record the red fluorescence at the excitation wavelength of 488nm.
(§4) Detection of apoptosis by Annexin-V FITC/PI double staining
(1) inoculate the logarithmic growth cells into the six-hole plate. The next day, after the cells are adhered to the wall, according to the group . The culture medium containing medicine was added and the negative control group was set up at the same time
(§5) (2) after 72 hours of treatment, the cells were digested with 0.25% trypsin (excluding […]
(3) 5 × 10 ~ 5 cells were collected by PBS washing cells twice (centrifugation 2000rpm for 5

HepG2 cells [1] = assay: Annexin-V FITC/PI double staining for apoptosis (flow cytometry); assay type: cell-based, human; conditions: 72 h
Experimental: After treating HepG2 cells with three concentrations of compound 1 for 72 h, flow cytometry was used to detect the apoptosis rate changes. […]
as §4
(1) inoculate the logarithmic growth cells into the six-hole plate. The next day, after the cells are adhered to the wall, according to the group . […]
as §5
(§6) (3) 5 × 10 ~ 5 cells were collected by PBS washing cells twice (centrifugation 2000rpm for 5 […]
(4) adding 500 μ L Binding Buffer suspension cells;
(5) After adding 5 μ L Annexin V-FITC, adding 5 μ L Pi, mixing;
(6) at room temperature, no light, the reaction time was 5 ~ 15 min, and the apoptosis was detected by flow cytometry. […]

HDAC2 = assay: Western blot of HDAC2 expression in HepG2 cells; assay type: cell-based, human; conditions: versus hepatoma cell group, p < 0.05
Source text: The total protein was extracted from the logarithmic growth phase of hepatoma HepG2 cell line, and the expression of HDAC2 was detected by Western blot method with urushiol derivative compound 1(see Figure 3). […] The mechanism was probably related to the inhibition of HDAC2 expression.
as §1, §2, §3

HepG2 cells [2] = assay: Calcium content detection (Fluo-3 probe, flow cytometry); assay type: cell-based, human; conditions: for Mean (calcium, Fluo-3 fluorescence): 72 h
Experimental: Calcium content detection
(1) inoculate the logarithmic growth cells into the six-hole plate. The next day, after the cells are adhered to the wall, according to the group . The culture medium containing medicine was added and the negative control group was set up at the same time.
as §5, §6
(4) adding 5 μ M Fluo-3 probe and mixing it to 37 degrees to avoid light for 30 min;

C/C=C\C=C\C/C=C\CCCCCCCc1cccc(O)c1O[Si](CCCS)(OC)OC [Compound 1]
IC50 (LO2 cells; Homo sapiens, L02, 72 h): 150 µM
IC50 (LO2 cells; 72 h): 151 µM
Apoptosis (%) (HepG2 cells [1]; HepG2, 1 μm): 15.73%
LL (%) (HepG2 cells [1]; HepG2, 1 μm): 82.71%
LR (%) (HepG2 cells [1]; HepG2, 1 μm): 9.38%
UL (%) (HepG2 cells [1]; HepG2, 1 μm): 1.56%
UR (%) (HepG2 cells [1]; HepG2, 1 μm): 6.35%
Apoptosis (%) (HepG2 cells [1]; HepG2, 3 μm): 32.60%
LL (%) (HepG2 cells [1]; HepG2, 3 μm): 67.33%
LR (%) (HepG2 cells [1]; HepG2, 3 μm): 16.42%
UL (%) (HepG2 cells [1]; HepG2, 3 μm): 0.07%
UR (%) (HepG2 cells [1]; HepG2, 3 μm): 16.18%
Apoptosis (%) (HepG2 cells [1]; HepG2, 12 μm): 47.87%
LL (%) (HepG2 cells [1]; HepG2, 12 μm): 48.91%
LR (%) (HepG2 cells [1]; HepG2, 12 μm): 37.68%
UL (%) (HepG2 cells [1]; HepG2, 12 μm): 3.24%
UR (%) (HepG2 cells [1]; HepG2, 12 μm): 10.19%
expression of HDAC2 protein (in words) (HDAC2): significantly lower
Mean (calcium, Fluo-3 fluorescence) (HepG2 cells [2]; HepG2, 1 μm): 65.01
Mean (calcium, Fluo-3 fluorescence) (HepG2 cells [2]; HepG2, 3 μm): 94.39
Mean (calcium, Fluo-3 fluorescence) (HepG2 cells [2]; HepG2, 12 μm): 136.80
intracellular calcium concentration (in words) (HepG2 cells [2]; HepG2, compared with blank control group): increased

Reference: article PMC6102549, “Synthesis and Evaluation of C15 Triene Urushiol Derivatives as Potential Anticancer Agents and HDAC2 Inhibitor” (Molecules : A Journal of Synthetic Chemistry and Natural …, 2018)
